Measured values published in publication PMC6672714 (Frontiers in Physiology, 2019).
“Also recorded” adds a separate entry of the source. No end group written: not given here.

How the values were obtained:
[1] = system: cultured chick pituitary cells (GnRH1-induced CART mRNA); assay type: cell-based, chicken; conditions: H89 10 μM; GnRH1 10 nM, 24 h; N = 4
Method: (§1) As described in our recent studies ([Huang et al., 2014]; [Mo et al., 2015]), anterior pituitaries collected from 1-week-old chicks were sliced and digested by 0.25% trypsin at 37°C for 20 min. The dispersed pituitary cells were cultured at a density of 5 × 10^5 cells/well in Medium 199 supplemented with 15% fetal bovine serum in a Corning Cell BIND 48-well plates (Corning, Tewksbury, MA) at 37°C with 5% CO2. After 24-h culture, the medium was replaced with serum-free M199 medium and the cells were treated with chicken GnRH1/GnRH2 for the duration (12–48 h) or with increasing doses (0.1–100 nM) of each peptide. The total RNA was then extracted from cultured pituitary cells and the expression of CART and β-actin assayed by qPCR.
(§2) “ND” indicates no statistical difference between the two groups. Each data point represents mean ± SEM of four replicates (N = 4). ^**p < 0.01 vs. control; ^#p < 0.01 vs. GnRH1 treatment (in the absence of drug). […] Total ERK2 in cell lysates was also examined and used as internal controls. Note: only a single band for pERK2 or total ERK2 (42 kDa) was detected in cell lysate, because ERK1 gene is lost in chicken genome ([Gerilechaogetu et al., 2009]). The representative sets of independent experimental duplicates are shown here.
(§3) “ND” indicates no statistical difference between the two groups. Each data point represents mean ± SEM of four replicates (N = 4). ^**p < 0.01 vs. control. […] The β-actin in cell lysates were also examined and used as internal controls. The representative sets of independent experimental duplicates are shown here.

[2] = system: rat GH3 cells (CART mRNA); set-up: method as in Barrett et al., 2001; conditions: ref Barrett et al., 2001; cited from earlier work
[3] = system: cultured chick pituitary cells (CART mRNA); assay: CART mRNA expression in cultured chick pituitary cells, qPCR; assay type: cell-based, chicken; conditions: N = 4
Excerpt: Chicken anterior pituitaries were collected either for cell culture, or for total RNA extraction. Total RNA was extracted from chicken tissues or cultured pituitary cells using RNAzol (Molecular Research Center, Cincinnati, OH) and reversely transcribed using M-MLV reverse transcriptase (TaKaRa). Reverse transcription (RT) samples were then used for quantitative real-time PCR (qPCR) assays to investigate the mRNA expression of target genes, as described in our recent studies ([Cai et al., 2015]; [Mo et al., 2015]).
as §1
The data were analyzed by the Student’s t-test (between two groups) or by one-way ANOVA followed by the Dunnett test in GraphPad Prism 5 (GraphPad Software, San Diego, CA). To validate our results, all experiments were repeated at least three times.
The mRNA levels of CART were normalized by β-actin and expressed as the percentage of respective controls. Each value represents the mean ± SEM of four replicates (N = 4). ^*p < 0.05, ^**p < 0.01 vs. respective control. (E) RT-PCR detection of GnRHR2 expression in cultured chick pituitary cells (three replicates). RT was performed in the presence (+) or absence (−) of reverse transcriptase. Parallel PCR of β-actin was performed to serve as an internal control.

[4] = system: ovine pars tuberalis cells (CART mRNA); set-up: method as in Barrett et al., 2001; conditions: ref Barrett et al., 2001; cited from earlier work
[5] = system: cultured chick pituitary cells (CART mRNA); set-up: method as in Mo et al., 2015; conditions: chickens; ref Mo et al., 2015; cited from earlier work
rats (plasma CART) = system: rats (plasma CART); set-up: method as in Stanley et al., 2004; conditions: intraperitoneal administration, ref Stanley et al., 2004; cited from earlier work
chicken GnRHR1 [6] = assay: pGL3-NFAT-RE-luciferase reporter, calcium signaling pathway, CHO cells expressing chicken GnRHR1; assay type: cell-based; conditions: four replicates
Excerpt: (§4) Based on the reported cDNA sequences of chicken GnRHR1 and GnRHR2 (accession nos.: NM_204653; NM_001012609) ([Sun et al., 2001]; [Shimizu and Bedecarrats, 2006]), gene-specific primers were used to amplify the open reading frame from adult chicken anterior pituitaries using high-fidelity Taq DNA polymerase (TOYOBO, Japan). The amplified PCR products were cloned into the pcDNA3.1 (+) expression vector (Invitrogen) and sequenced. According to our previously established methods, the signaling property of each receptor was examined in Chinese hamster ovary (CHO) cells using pGL3-NFAT-RE-luciferase ([Wang et al., 2012]), pGL4-SRE-luciferase ([Mo et al., 2015]), and pGL3-CRE-luciferase reporter systems ([Wang et al., 2007]).
(§5) Although two GnRH receptors (GnRHR1 and GnRHR2) have been identified in chickens ([Sun et al., 2001]; [Shimizu and Bedecarrats, 2006]; [Joseph et al., 2009]), their downstream signaling pathways have not been fully characterized.
(§6) Figure 5 Activation of chicken GnRHR1 or GnRHR2 expressed in CHO cells by chicken GnRH1 or GnRH2, monitored by pGL3-NFAT-RE-luciferase (A,D), pGL4-SRE-luciferase (B,E), and pGL3-CRE-luciferease (C,F) reporter systems. […] Each data point represents mean ± SEM of four replicates (N = 4).

chicken GnRHR2 [7] = assay: pGL3-NFAT-RE-luciferase reporter, calcium signaling pathway, CHO cells expressing chicken GnRHR2; assay type: cell-based; conditions: four replicates
Excerpt: as §4, §5, §6

chicken GnRHR1 [8] = assay: pGL4-SRE-luciferase reporter, MAPK/ERK signaling pathway, CHO cells expressing chicken GnRHR1; assay type: cell-based; conditions: four replicates
Excerpt: as §4, §5, §6

chicken GnRHR2 [9] = assay: pGL4-SRE-luciferase reporter, MAPK/ERK signaling pathway, CHO cells expressing chicken GnRHR2; assay type: cell-based; conditions: four replicates
Excerpt: as §4, §5, §6

chicken GnRHR1 [10] = assay: pGL3-CRE-luciferase reporter, cAMP/PKA signaling pathway, CHO cells expressing chicken GnRHR1; assay type: cell-based; conditions: four replicates
Excerpt: as §4, §5, §6

chicken GnRHR2 [11] = assay: pGL3-CRE-luciferase reporter, cAMP/PKA signaling pathway, CHO cells expressing chicken GnRHR2; assay type: cell-based; conditions: four replicates
Excerpt: as §4, §5, §6

chicken GnRHR1 [12] = assay: three cell-based luciferase reporter assays, GnRHR1 (qualitative); conditions: GnRHR1, CHO cells, calcium, MAPK/ERK and cAMP/PKA reporters
Excerpt: as §4, §5, §6

chicken GnRHR2 [13] = assay: three cell-based luciferase reporter assays, GnRHR2 (qualitative); conditions: GnRHR2, CHO cells, calcium, MAPK/ERK and cAMP/PKA reporters
Excerpt: as §4, §5, §6

[14] = system: intact anterior pituitaries (CART secretion); assay: CART peptide secretion from intact anterior pituitaries incubated in vitro, Western blot; assay type: cell-based, chicken; conditions: 4 h, intact chick pituitaries, N = 3
Method: As described in our recent study ([Huang et al., 2014]), the intact anterior pituitaries collected from 1-week-old male chicks were washed with PBS and placed on a 48-well plate (NUNC) supplemented with 400 μl serum-free Medium 199 (Invitrogen). After 1-h incubation at 37°C, the medium was replaced by 300 μl serum-free Medium 199 containing different concentrations of chicken GnRH1 or GnRH2 (0.1–100 nM) and incubated for 4 h. […] Parallel blotting of β-actin and CART in pituitary tissue lysates was also conducted.
The intracellular CART (iCART) and β-actin levels in the pituitary tissue lysate were also examined in parallel. […] Each data point represents mean ± SEM of three replicates (N = 3). ^*p < 0.05; ^**p < 0.01 vs. respective control. […] One representative set of Western blot is shown at the top of each graph.

chicks (plasma CART) = assay: plasma CART levels after intraperitoneal administration in chicks, ELISA; assay type: in vivo, chicken; conditions: 5 μg/chick, 30 min, male chicks
Method: The levels of CART peptide in chicken plasma was then determined by competitive ELISA assay.
Each data point represents mean ± SEM of seven 19-day-old male individuals (N = 7). ^*p < 0.05 vs. saline (control).

ERK2 phosphorylation = ERK2 phosphorylation in cultured chick pituitary cells, Western blot; assay type: cell-based, chicken; conditions: 10 nM, 10 min, duplicates
Excerpt: as §2

CREB phosphorylation = CREB phosphorylation in cultured chick pituitary cells, Western blot; assay type: cell-based, chicken; conditions: 10 nM, 5 min, duplicates
Excerpt: as §3

[15] = system: rat pituitary (CART secretion); set-up: method as in Kappeler et al., 2006; conditions: rat pituitary upon perfusion; ref Kappeler et al., 2006; cited from earlier work

For `O=S(=O)(NCCNC/C=C/c1ccc(Br)cc1)c1cccc2cnccc12` [H89], the “effect on GnRH1-induced CART mRNA expression” value [1] is listed as “could abolish GnRH1-induced CART expression” and the “effect on AC activator- or cAMP analog-stimulated CART mRNA levels” value [2] is listed as “abolished”.

In the case of `CCCCCCCCCCCCCC(=O)O[C@@H]1[C@@H](C)[C@@]2(O)[C@@H](C=C(CO)C[C@]3(O)C(=O)C(C)=C[C@@H]23)[C@@H]2C(C)(C)[C@]12OC(C)=O` [PMA, phorbol-12-myristate-13-acetate, reference compound], the “effect on CART mRNA expression” value ([3]; PMA 100 nM, 48 h) is listed as “could mimic GnRH1 action” and the “CART mRNA expression” value [4] is listed as “enhances CART mRNA expression”.

In the case of “CRH: corticotropin-releasing hormone, hypothalamic factor (literature results only)”, the “potency as stimulator of pituitary CART secretion and expression” value [5] is listed as “potent stimulator of pituitary CART secretion and expression” and the “plasma CART levels” value (rats (plasma CART)) is listed as “increase plasma CART levels in rats”.

“GnRH1: chicken gonadotropin-releasing hormone 1, synthesized using solid-phase Fmoc chemistry; an ortholog of mammalian GnRH (QHWSYGLQPG; ends and bridges not checked; UniProt P37042 24-33, looked up)” showed an EC50 (chicken GnRHR1 [6]) of 11.3 nM, an EC50 (chicken GnRHR2 [7]) of 1.54 nM and an EC50 (chicken GnRHR1 [8]) of 270 nM. For the same molecule, the EC50 (chicken GnRHR2 [9]) was 29.9 nM, the EC50 (chicken GnRHR1 [10]) was 69.3 nM and the EC50 (chicken GnRHR2 [11]) was 2.15 nM. For the same molecule, the “activation of GnRHR1 (luciferase activity)” value (chicken GnRHR1 [12]) was “stimulate the luciferase activities dose-dependently”, the “activation of GnRHR2 (luciferase activity)” value (chicken GnRHR2 [13]) was “stimulate the luciferase activities dose-dependently; also recorded: potently activated by both GnRH1 and GnRH2” and the “secretion of mature CART peptide” value ([14]; 0–100 nM) was “potently stimulated the secretion of mature CART peptide”. For the same molecule, the “minimal effective concentration, CART secretion” value [14] was 1 nM, the “increase in plasma CART levels vs saline” value (chicks (plasma CART); N = 7, p < 0.05) was “two-fold” and the “plasma CART level” value (chicks (plasma CART); N = 7, saline control 1.3 ng/ml, p < 0.05) was 2.7 ng/mL. For the same molecule, the “effect on CART mRNA expression, dose dependence” value ([3]; 0–100 nM, 48 h, qPCR) was “stimulate CART expression dose-dependently”, the “treatment time of maximal effect on CART mRNA expression” value ([3]; 10 nM, qPCR) was 48 h and the “effect on CART mRNA expression” value ([3]; 10 nM, time course (12–48 h), qPCR) was “induce CART expression in a time-dependent manner”. The “minimal effective dose, CART mRNA expression” value ([3]; 48 h, qPCR) was 1 nM, the ERK2 phosphorylation (ERK2 phosphorylation) was “could enhance ERK2 phosphorylation” and the CREB phosphorylation (CREB phosphorylation) was “could enhance CREB phosphorylation”.

For “GnRH: GnRH perfused on rat pituitary in a previous study (form not specified) (QHWSYGLRPG; ends and bridges not checked; UniProt P07490 24-33, looked up)”, the CART secretion [15] is listed as “CART secretion is induced”.
